Literature values, collected in paper PMC3925743 (Journal of controlled release : official journal of the …, 2013).

System: prostate cancer LNCaP cells

## protamine
  delivery of siRNA into cells: cannot deliver siRNA
